Assay results: ChEMBL document CHEMBL1770082, “Probing the isoprenylcysteine carboxyl methyltransferase (Icmt) binding pocket: sulfonamide modified farnesyl cysteine (SMFC) analogs as Icmt inhibitors” (Bioorg Med Chem Lett, 2011)

Legend:
[1] = target: T1, Protein-S-isoprenylcysteine O-methyltransferase (Homo sapiens, UniProt O60725); conditions: at 10 µM
Description: Inhibition of human ICMT at 10 uM incubated with N-Acetyl-S-farnesyl-L-cysteine substrate for 5 mins followed by addition of [14C]-SAM measured after 30 mins by liquid scintillation counting

[2] = target: T1, Protein-S-isoprenylcysteine O-methyltransferase; assay: Inhibition of human ICMT incubated with N-Acetyl-S-farnesyl-L-cysteine substrate for 5 mins followed by addition of [14C]-SAM measured after 30 mins by liquid scintillation counting
[3] = target: T1, Protein-S-isoprenylcysteine O-methyltransferase; assay: Inhibition of human ICMT at 10uM incubated with N-Acetyl-S-farnesyl-L-cysteine substrate for 5 mins followed by addition of [14C]-SAM measured after 30 mins by liquid scintillation counting

T1 sequence (O60725 whole entry): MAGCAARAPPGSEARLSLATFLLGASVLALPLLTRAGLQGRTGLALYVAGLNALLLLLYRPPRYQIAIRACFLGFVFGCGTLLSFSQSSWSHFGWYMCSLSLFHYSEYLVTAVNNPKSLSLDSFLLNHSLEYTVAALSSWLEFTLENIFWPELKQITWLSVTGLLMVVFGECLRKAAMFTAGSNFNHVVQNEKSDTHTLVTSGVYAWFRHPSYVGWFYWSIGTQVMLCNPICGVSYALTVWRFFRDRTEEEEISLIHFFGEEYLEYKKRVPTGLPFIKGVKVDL

SMILES	inhibition [1] [%]	IC50 [2] [µM]	inhibition [3] [%]
COc1ccc(S(=O)(=O)N[C@@H](CSC/C=C(\C)CC/C=C(\C)CCC=C(C)C)C(=O)O)c(OC)c1	45		
CCCCCCCCS(=O)(=O)N[C@@H](CSC/C=C(\C)CC/C=C(\C)CCC=C(C)C)C(=O)O	< 45		
CC(C)=CCC/C(C)=C/CC/C(C)=C/CSC[C@H](NS(=O)(=O)c1ccc(-c2ccccc2)cc1)C(=O)O	< 45		
CC(C)=CCC/C(C)=C/CC/C(C)=C/CSC[C@H](NS(=O)(=O)c1cccc2c(N(C)C)cccc12)C(=O)O	45	11.6	
CC(C)=CCC/C(C)=C/CC/C(C)=C/CSC[C@H](NS(=O)(=O)c1ccc(C(C)(C)C)cc1)C(=O)O	45		
CC(C)=CCC/C(C)=C/CC/C(C)=C/CSC[C@H](NS(=O)(=O)c1c(C(C)C)cc(C(C)C)cc1C(C)C)C(=O)O	< 45		
COc1ccc(S(=O)(=O)N[C@@H](CSC/C=C(\C)CC/C=C(\C)CCC=C(C)C)C(=O)O)c([N+](=O)[O-])c1	< 45		
CC(C)=CCC/C(C)=C/CC/C(C)=C/CSC[C@H](NS(=O)(=O)c1ccc2ccccc2c1)C(=O)O	45		
CCCc1ccc(S(=O)(=O)N[C@@H](CSC/C=C(\C)CC/C=C(\C)CCC=C(C)C)C(=O)O)cc1	< 45		
CC(C)=CCC/C(C)=C/CC/C(C)=C/CSC[C@H](NS(=O)(=O)C[C@@]12CC[C@H](CC1=O)C2(C)C)C(=O)O	45		
COC(=O)[C@H](CSC/C=C(\C)CC/C=C(\C)CCC=C(C)C)NS(=O)(=O)c1cccs1			10
CCCCCCSC[C@H](NS(=O)(=O)c1cccc([N+](=O)[O-])c1)C(=O)O	17		
CC(C)=CCC/C(C)=C/CC/C(C)=C/CSC[C@H](NS(=O)(=O)c1cccc2cccnc12)C(=O)O	45		
CC(C)=CCC/C(C)=C/CC/C(C)=C/CSC[C@H](NS(=O)(=O)Cc1ccccc1)C(=O)O	< 45		
CC(C)=CCC/C(C)=C/CC/C(C)=C/CSC[C@H](NS(=O)(=O)c1ccc(F)cc1F)C(=O)O	45		
CCCCCCCCCCCSC[C@H](NS(=O)(=O)c1cccc([N+](=O)[O-])c1)C(=O)O	32		
CC(=O)Nc1ccc(S(=O)(=O)N[C@@H](CSC/C=C(\C)CC/C=C(\C)CCC=C(C)C)C(=O)O)cc1	< 45		
CC(C)=CCC/C(C)=C/CC/C(C)=C/CSC[C@H](NS(=O)(=O)c1ccc(Cl)cc1F)C(=O)O	< 45		
CC(C)=CCC/C(C)=C/CC/C(C)=C/CSC[C@H](NS(=O)(=O)c1c(F)c(F)c(F)c(F)c1F)C(=O)O	< 45		
CC(C)=CCC/C(C)=C/CC/C(C)=C/CSC[C@H](NS(=O)(=O)c1c(C)c(C)c(C)c(C)c1C)C(=O)O	< 45		

SMILES	inhibition [1] [%]	IC50 [2] [µM]	inhibition [3] [%]
CC(C)=CCC/C(C)=C/CC/C(C)=C/CSC[C@H](NS(=O)(=O)c1ccccc1[N+](=O)[O-])C(=O)O	45		
CC(C)=CCC/C(C)=C/CC/C(C)=C/CSC[C@H](NS(=O)(=O)c1ccccc1Oc1ccccc1)C(=O)O	55	18.4	
CC(C)=CCC/C(C)=C/CC/C(C)=C/CSC[C@H](NS(=O)(=O)c1ccc(Br)s1)C(=O)O	< 45		
CC(C)=CCC/C(C)=C/CC/C(C)=C/CSC[C@H](NS(=O)(=O)c1ccc(Cl)cc1)C(=O)O	45		
CC(=O)c1ccc(S(=O)(=O)N[C@@H](CSC/C=C(\C)CC/C=C(\C)CCC=C(C)C)C(=O)O)cc1	45		
COc1ccc(S(=O)(=O)N[C@@H](CSC/C=C(\C)CC/C=C(\C)CCC=C(C)C)C(=O)O)cc1	< 45		
CC(C)=CCC/C(C)=C/CSC[C@H](NS(=O)(=O)c1cccc([N+](=O)[O-])c1)C(=O)O	18		
CC(C)=CCC/C(C)=C/CSC[C@H](NS(=O)(=O)c1ccc(F)cc1)C(=O)O	23		
CC(C)=CCC/C(C)=C/CC/C(C)=C/CSC[C@H](NS(=O)(=O)c1ccccc1C(F)(F)F)C(=O)O	< 45		
COc1ccc(S(=O)(=O)N[C@@H](CSC/C=C(\C)CC/C=C(\C)CCC=C(C)C)C(=O)O)cc1OC	> 55		
C=Cc1ccc(S(=O)(=O)N[C@@H](CSC/C=C(\C)CC/C=C(\C)CCC=C(C)C)C(=O)O)cc1	< 45		
CC(C)=CCC/C(C)=C/CC/C(C)=C/CSC[C@H](NS(=O)(=O)c1ccc(C)cc1)C(=O)O	< 45		
CC(C)=CCC/C(C)=C/CC/C(C)=C/CSC[C@H](NS(=O)(=O)c1ccc([N+](=O)[O-])cc1)C(=O)O	> 55		
CC(C)=CCC/C(C)=C/CC/C(C)=C/CSC[C@H](NS(=O)(=O)c1ccccc1)C(=O)O	45	17	
CC(C)=CCC/C(C)=C/CC/C(C)=C/CSC[C@H](NS(=O)(=O)c1ccccc1Br)C(=O)O	< 45		
CC(C)=CCC/C(C)=C/CC/C(C)=C/CSC[C@H](NS(=O)(=O)c1ccc(C(C)C)cc1)C(=O)O	< 45		
CC(C)=CCC/C(C)=C/CC/C(C)=C/CSC[C@H](NS(=O)(=O)c1ccc(F)cc1)C(=O)O	> 55	15.5	
CC(C)=CCC/C(C)=C/CSC[C@H](NS(=O)(=O)c1ccccc1)C(=O)O	22		
CC(C)=CCC/C(C)=C/CC/C(C)=C/CSC[C@H](NS(=O)(=O)c1cccs1)C(=O)O	> 55	8.8	
CC(C)=CCC/C(C)=C/CC/C(C)=C/CSC[C@H](NS(=O)(=O)c1cccc([N+](=O)[O-])c1)C(=O)O	> 55	13.4	
